pIC50: −log10 of the molar value.
Experiments:
KYSE-30 cells [1] = assay: Cancer cell line proliferation assay, ATP-based cell viability (Cell Titre Glow), KYSE-30 (normal CCNE1); details: Homo sapiens, KYSE-30 cells (normal CCNE1), concentration that achieves 50% cell growth proliferation inhibition, read-out: KYSE30 Gl50
Procedure, shortened: (§1)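 GI50 values, the concentrations halving cell growth, were derived from ATP-based luminescence (Cell Titre Glo) after PKMYT1 inhibitor exposure. Cells tested were OVCAR 3, an ovarian line with amplified CCNE1, and KYSE-30, which has normal CCNE1.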

KYSE-30 cells [2] = assay: Cancer cell line proliferation assay, nuclear count, KYSE-30 (normal CCNE1); type: cell-based; details: Homo sapiens, normal CCNE1 expression, banded, read-out: KYSE30 GI50
Experimental: h-TERT-RPE1 TP53−/− and CCNE1 high expressing clones (clone cell lines 7 and 15) were treated with test compounds dissolved in DMSO at serially diluted concentrations alongside a DMSO only control for around 6 population doublings time. Cells were then fixed with 4% Paraformaldehyde and the cell nuclei were stained with DAPI (Sigma D9542). Images covering each well were acquired by an Opera Phenix® High-Content Screening System (PerkinElmer). Image analysis was performed using Harmony® high-content analysis software (PerkinElmer). Data analysis was performed using Microsoft Excel® and GI50 estimates generated with GraphPad Prism v9. Percent nuclear count was compared to vehicle control wells and used to measure inhibition of proliferation.
Cancer cell lines with either normal (KYSE-30) or amplified CCNE1 expression (OVCAR3-ovarian cancer) were evaluated for their sensitivity to PKMYT1 inhibitors in a nuclear count assay as described above for h-TERT-RPE1 TP53−/− and a CCNE1 high expressing clones, taking into account the slower cell cycle division times of these lines.

[3] = target: T1, Cellular PKMYT1 Biomarker CDK1 pT14 (Homo sapiens, UniProt Q99640); assay: Inhibition of cellular PKMYT1 biomarker CDK1 pT14 in OVCAR 3 cells (immunoblot); type: cell-based; details: 20 hours incubation
T1 construct: read-out CDK1 phospho-T14 immunoblot
T1 sequence (Q99640 1-499): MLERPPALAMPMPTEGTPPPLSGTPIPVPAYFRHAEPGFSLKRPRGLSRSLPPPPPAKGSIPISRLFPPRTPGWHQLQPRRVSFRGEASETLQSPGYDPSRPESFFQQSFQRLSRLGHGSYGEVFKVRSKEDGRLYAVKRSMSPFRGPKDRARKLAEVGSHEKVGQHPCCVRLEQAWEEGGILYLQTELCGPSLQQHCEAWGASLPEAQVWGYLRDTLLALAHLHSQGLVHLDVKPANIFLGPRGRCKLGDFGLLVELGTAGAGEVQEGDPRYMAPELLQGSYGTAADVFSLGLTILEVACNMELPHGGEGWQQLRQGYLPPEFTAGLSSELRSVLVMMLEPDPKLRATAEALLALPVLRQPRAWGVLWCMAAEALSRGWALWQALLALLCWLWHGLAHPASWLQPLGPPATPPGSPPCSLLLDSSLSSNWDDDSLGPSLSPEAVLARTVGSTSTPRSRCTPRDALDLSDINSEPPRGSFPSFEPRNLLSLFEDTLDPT
Procedure, shortened: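 Confluent OVCAR 3 cells treated with a compound concentration range for 20 h at 37 °C. Lysates analysed by automated capillary immunoblot for CDK1 phospho-T14, with vinculin, fluorescence detection; IC50 by regression.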

OVCAR 3 cells = assay: Cancer cell line proliferation assay, ATP-based cell viability (Cell Titre Glow), OVCAR 3 (CCNE1-amplified); details: KYSE30 (normal CCNE1) GI50 vs. OVCAR 3 (CCNE1-amplified) GI50
Procedure, shortened: as §1

WEE1 = target: T2, WEE1 (Homo sapiens, UniProt P30291); assay: Selectivity versus WEE1 assay (ADP-Glo enzymatic assay); type: biochemical; details: banded
T2 construct: purchased Thermo Fisher PR7373A
Procedure, shortened: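 Inhibition is measured as reduced ADP production, detected by luminescence with ADP-Glo, after enzyme (15 nM) and 30 µM ATP react for 60 min at 26° C in 1% DMSO-containing HEPES buffer, pH 7.5. Data are accepted only if replicate IC50s fall within 3-fold and r2 exceeds 0.9.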

T2 sequence (P30291 whole entry): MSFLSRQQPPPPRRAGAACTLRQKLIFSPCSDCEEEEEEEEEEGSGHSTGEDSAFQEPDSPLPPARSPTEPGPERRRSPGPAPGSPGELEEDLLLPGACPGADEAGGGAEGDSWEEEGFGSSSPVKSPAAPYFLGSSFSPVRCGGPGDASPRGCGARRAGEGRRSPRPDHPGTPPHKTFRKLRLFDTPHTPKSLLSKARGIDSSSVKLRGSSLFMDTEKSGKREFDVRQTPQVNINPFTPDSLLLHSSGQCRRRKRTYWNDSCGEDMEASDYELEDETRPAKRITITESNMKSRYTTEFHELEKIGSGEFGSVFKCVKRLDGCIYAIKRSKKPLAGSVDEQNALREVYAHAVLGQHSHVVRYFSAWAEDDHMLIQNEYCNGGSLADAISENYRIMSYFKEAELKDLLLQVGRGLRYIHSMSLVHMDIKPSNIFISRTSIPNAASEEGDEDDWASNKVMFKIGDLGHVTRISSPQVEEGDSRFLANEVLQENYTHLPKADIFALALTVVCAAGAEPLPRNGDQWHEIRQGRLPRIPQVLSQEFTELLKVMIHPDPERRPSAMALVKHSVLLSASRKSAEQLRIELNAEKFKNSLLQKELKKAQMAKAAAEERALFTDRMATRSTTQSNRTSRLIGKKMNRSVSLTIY

pIC50 [3]: > 7.00 | pIC50 (WEE1; ADP-Glo, 15 nM WEE1, 60 minutes at 26° C.): 4.96 to 6.00 | PKMYT1 vs. WEE1 selectivity (WEE1; fold difference in selectivity for PKMYT1 over WEE1, ">N" = at least in this band but could be higher): X (100-<1000 fold)
SMILES: CCN(CC)C(=O)Cn1cc(C)c(Nc2ncc(C(=O)Nc3c(C)ccc(O)c3C)s2)n1 [BAA-207, 2-[[1-[2-(diethylamino)-2-oxo-ethyl]-4-methyl-pyrazol-3-yl]amino]-N-(3-hydroxy-2,6-dimethyl-phenyl)thiazole-5-carboxamide]
GI50 (KYSE-30 cells [1]): > 5 µM | GI50 (KYSE-30 cells [2]): 3 to 10 µM | Selectivity ratio KYSE30 Gl50 vs. OVCAR3 Gl50 (OVCAR 3 cells): Y (>20 fold)

Reference: US20260297042A1, “BIARYLAMIDE DERIVATIVES AND THEIR USE AS PKMYT1 INHIBITORS” (CANCER RESEARCH TECHNOLOGY LIMITED, priority 2023, published 2026)
